The results in this text go back to patent US11331299B2, “Medicinal use of serrulatane diterpenes” (The University of Sydney, priority 2016, dated 2022).

SMILES strings stand for the structures. pIC50: −log10 of the molar value.

The term pIC50 denotes the negative decadic logarithm of the IC50, by convention in mol/L. For orientation: inhibition means the drop in the measured response relative to a control, in per cent.

One series deals with T1, PRMT4 (h) (Homo sapiens, UniProt Q86X55).
T1 sequence (Q86X55 1-608): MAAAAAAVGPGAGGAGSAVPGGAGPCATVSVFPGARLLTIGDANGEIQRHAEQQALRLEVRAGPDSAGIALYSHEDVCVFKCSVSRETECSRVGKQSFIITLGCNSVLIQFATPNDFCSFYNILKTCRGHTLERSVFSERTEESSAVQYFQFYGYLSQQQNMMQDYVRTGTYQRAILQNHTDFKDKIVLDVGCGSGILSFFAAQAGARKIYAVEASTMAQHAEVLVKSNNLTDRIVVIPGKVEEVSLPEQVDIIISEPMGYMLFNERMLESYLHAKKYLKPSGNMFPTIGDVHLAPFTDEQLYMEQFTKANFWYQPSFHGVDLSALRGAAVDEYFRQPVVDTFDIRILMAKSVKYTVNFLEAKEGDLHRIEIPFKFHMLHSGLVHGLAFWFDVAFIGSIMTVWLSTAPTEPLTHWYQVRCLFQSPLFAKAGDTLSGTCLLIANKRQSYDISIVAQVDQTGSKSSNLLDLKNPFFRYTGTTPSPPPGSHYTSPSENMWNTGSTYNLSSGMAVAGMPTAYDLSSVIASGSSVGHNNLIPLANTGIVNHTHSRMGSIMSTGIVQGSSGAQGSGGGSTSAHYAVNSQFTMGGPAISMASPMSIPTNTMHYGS
In words: Epigenetic enzyme assay, Methyltransferases (MTs). It counts as biochemical. As to conditions: for pIC50: Table 11, inhibition/concentration-response curve; for inhibition at 10 µM: read-out: % Inhibition of Control Values.

The target in the next series is T2, CYP2B6 (Homo sapiens, UniProt P20813).
T2 sequence (P20813 1-491): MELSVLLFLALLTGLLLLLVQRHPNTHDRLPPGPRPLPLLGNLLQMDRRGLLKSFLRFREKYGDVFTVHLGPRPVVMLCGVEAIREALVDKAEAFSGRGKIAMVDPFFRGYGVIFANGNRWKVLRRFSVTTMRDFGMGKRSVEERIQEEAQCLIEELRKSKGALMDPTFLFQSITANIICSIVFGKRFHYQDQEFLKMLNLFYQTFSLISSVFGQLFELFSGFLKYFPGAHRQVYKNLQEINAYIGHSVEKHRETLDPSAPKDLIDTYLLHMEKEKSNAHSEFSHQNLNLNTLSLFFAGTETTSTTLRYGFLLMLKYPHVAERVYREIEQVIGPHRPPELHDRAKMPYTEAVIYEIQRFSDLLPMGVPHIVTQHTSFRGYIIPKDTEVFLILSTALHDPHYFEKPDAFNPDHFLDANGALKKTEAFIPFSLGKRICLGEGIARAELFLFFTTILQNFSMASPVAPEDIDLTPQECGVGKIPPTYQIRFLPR
In words: Cytochrome P450 Inhibition (CYP panel). As to conditions: human, probe bupropion.

A further series concerns the target T3, ATAD2A (h) bromodomain (Homo sapiens, UniProt Q6PL18).
T3 construct: Bromodomain
T3 sequence (Q6PL18 980-1092 limits assumed): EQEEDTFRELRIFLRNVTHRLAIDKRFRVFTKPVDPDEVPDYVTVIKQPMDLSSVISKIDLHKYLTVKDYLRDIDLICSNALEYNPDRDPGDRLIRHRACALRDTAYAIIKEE
In words: Epigenetic binding assay, Bromodomain. As to conditions: for inhibition at 10 µM: read-out: % Inhibition of Control Specific Binding.

The target in another series is JARID1A (h) (Homo sapiens, UniProt P29375). In words: Epigenetic enzyme assay, Demethylases (KDMs). The series is classed as biochemical. As to conditions: for inhibition at 10 µM: read-out: % Inhibition of Control Values.
The target in a further series is JARID1B (h) (Homo sapiens, UniProt Q9UGL1). In words: Epigenetic enzyme assay, Demethylases (KDMs). It counts as biochemical. As to conditions: for inhibition at 10 µM: read-out: % Inhibition of Control Values.
The target of the next series is MLL complex (h) (Homo sapiens, UniProt Q03164). In words: Epigenetic enzyme assay, Methyltransferases (MTs). The series is classed as biochemical. To be noted: for inhibition at 10 µM: read-out: % Inhibition of Control Values.
In a further series the target is PRMT5 complex (h) (Homo sapiens, UniProt O14744). The series is described as follows: Epigenetic enzyme assay, Methyltransferases (MTs). It counts as biochemical. As to conditions: read-out: % Inhibition of Control Values.
Another series has as its target SETD2(h) (Homo sapiens, UniProt Q9BYW2). The series is described as follows: Epigenetic enzyme assay, Methyltransferases (MTs). The series is classed as biochemical. To be noted: for inhibition at 10 µM: read-out: % Inhibition of Control Values.
Another series has as its target SUV4-20H2 (h) (Homo sapiens, UniProt Q86Y97). The series is described as follows: Epigenetic enzyme assay, Methyltransferases (MTs). It counts as biochemical. To be noted: for inhibition at 10 µM: read-out: % Inhibition of Control Values.
For series [1], the target named is MSK1(h) (substrate histone H3 full length) (Homo sapiens, UniProt O75582). In words: Epigenetic enzyme assay, Kinases. The series is classed as biochemical. To be noted: read-out: % Inhibition of Control Values.
In the next series the test system is Angiotensin, AT1/ACE. In words: Angiotensin, AT1/ACE, guinea pig ileum (isotonic). As to conditions: 10 μM; assay year 2015. More on the design: species or system Dunkin Hartley Guinea pig. As to the method: The in vitro pharmacological studies were conducted by Eurofins PanLab (Taiwan) using the parameters shown in Table 13 with respect to appropriate literature references.

Chain of JARID1A (h) (P29375 whole entry): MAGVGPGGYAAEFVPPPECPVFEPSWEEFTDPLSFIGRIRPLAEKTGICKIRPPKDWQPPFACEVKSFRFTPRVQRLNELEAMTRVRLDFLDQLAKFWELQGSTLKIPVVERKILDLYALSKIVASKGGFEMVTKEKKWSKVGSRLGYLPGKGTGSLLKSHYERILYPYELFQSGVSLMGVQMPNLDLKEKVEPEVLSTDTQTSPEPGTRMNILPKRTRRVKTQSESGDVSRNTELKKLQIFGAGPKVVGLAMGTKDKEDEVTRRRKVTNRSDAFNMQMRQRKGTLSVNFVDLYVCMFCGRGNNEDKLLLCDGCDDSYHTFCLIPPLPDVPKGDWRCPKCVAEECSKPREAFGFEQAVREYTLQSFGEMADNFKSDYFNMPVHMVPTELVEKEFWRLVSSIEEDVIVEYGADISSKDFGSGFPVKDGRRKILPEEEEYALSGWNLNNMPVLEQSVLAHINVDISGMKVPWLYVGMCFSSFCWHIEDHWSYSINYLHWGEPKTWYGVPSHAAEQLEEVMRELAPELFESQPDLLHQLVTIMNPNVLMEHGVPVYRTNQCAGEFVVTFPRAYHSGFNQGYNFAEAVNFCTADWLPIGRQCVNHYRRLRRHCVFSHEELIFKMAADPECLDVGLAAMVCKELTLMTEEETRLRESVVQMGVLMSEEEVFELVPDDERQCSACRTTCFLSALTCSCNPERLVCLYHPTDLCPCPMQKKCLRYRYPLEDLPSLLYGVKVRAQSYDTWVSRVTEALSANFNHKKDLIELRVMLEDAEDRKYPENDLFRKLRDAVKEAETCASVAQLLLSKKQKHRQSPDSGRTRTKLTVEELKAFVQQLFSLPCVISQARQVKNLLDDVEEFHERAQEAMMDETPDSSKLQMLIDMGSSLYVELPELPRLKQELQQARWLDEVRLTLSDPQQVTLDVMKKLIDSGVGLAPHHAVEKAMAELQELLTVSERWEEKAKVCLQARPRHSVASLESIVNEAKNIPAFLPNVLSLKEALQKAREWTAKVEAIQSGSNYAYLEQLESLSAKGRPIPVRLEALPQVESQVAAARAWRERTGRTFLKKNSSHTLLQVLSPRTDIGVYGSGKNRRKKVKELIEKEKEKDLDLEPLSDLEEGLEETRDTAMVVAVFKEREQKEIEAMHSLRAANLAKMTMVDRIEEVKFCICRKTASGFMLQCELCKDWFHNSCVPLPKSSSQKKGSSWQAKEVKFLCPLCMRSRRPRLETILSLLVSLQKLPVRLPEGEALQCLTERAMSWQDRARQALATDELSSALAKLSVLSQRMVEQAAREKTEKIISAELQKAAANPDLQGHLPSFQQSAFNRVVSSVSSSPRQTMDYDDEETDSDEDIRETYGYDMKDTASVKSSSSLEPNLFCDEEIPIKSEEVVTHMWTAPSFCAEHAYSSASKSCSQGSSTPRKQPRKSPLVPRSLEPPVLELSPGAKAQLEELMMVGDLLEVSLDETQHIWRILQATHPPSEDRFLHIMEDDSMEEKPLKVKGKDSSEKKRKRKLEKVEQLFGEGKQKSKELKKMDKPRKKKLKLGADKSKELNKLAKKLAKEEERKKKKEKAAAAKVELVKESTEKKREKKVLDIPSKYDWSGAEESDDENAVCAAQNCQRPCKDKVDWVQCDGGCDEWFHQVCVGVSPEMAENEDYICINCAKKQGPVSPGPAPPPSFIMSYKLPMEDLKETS
Chain of SUV4-20H2 (h) (Q86Y97 whole entry): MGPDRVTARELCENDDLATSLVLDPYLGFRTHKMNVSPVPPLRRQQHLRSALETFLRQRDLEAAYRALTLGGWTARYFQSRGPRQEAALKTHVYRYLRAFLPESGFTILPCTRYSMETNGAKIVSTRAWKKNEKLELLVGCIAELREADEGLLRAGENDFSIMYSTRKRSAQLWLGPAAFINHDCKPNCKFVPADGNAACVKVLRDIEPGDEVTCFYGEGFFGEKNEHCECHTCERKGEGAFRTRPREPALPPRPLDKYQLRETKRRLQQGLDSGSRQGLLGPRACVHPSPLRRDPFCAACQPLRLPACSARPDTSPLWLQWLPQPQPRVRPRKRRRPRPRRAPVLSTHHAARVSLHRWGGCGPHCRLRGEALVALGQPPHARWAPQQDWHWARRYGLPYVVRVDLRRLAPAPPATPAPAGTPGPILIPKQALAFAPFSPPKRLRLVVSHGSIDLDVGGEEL
Chain of PRMT5 complex (h) (O14744 whole entry): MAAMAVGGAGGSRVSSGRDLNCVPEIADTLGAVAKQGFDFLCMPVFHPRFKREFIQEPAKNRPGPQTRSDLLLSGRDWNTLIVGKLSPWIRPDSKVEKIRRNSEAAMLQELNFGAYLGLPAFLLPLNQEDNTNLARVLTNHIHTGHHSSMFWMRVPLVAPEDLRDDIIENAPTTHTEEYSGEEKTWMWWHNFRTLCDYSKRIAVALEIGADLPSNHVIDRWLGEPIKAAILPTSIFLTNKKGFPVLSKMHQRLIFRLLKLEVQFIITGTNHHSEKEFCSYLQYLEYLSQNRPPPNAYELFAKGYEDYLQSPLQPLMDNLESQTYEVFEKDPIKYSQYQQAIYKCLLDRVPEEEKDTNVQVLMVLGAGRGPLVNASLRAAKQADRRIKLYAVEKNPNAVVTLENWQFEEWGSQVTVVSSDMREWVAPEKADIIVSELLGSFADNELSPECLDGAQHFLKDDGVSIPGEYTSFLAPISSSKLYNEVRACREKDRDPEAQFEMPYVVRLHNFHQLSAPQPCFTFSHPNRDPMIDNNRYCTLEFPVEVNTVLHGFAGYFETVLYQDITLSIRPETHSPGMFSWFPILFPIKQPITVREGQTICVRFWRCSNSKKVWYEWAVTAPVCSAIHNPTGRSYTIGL
Chain of PRMT5 complex (h) (Q9BQA1 whole entry partner): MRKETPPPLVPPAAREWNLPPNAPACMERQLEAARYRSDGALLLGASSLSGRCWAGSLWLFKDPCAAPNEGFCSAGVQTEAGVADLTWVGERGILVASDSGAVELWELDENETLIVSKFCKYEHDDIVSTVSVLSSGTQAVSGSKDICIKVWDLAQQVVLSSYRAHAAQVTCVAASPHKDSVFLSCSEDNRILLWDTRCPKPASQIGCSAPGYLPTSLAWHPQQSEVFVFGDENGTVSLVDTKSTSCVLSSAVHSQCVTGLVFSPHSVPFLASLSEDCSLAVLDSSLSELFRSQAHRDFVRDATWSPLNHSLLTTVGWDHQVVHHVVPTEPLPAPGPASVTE
Chain of JARID1B (h) (Q9UGL1 whole entry): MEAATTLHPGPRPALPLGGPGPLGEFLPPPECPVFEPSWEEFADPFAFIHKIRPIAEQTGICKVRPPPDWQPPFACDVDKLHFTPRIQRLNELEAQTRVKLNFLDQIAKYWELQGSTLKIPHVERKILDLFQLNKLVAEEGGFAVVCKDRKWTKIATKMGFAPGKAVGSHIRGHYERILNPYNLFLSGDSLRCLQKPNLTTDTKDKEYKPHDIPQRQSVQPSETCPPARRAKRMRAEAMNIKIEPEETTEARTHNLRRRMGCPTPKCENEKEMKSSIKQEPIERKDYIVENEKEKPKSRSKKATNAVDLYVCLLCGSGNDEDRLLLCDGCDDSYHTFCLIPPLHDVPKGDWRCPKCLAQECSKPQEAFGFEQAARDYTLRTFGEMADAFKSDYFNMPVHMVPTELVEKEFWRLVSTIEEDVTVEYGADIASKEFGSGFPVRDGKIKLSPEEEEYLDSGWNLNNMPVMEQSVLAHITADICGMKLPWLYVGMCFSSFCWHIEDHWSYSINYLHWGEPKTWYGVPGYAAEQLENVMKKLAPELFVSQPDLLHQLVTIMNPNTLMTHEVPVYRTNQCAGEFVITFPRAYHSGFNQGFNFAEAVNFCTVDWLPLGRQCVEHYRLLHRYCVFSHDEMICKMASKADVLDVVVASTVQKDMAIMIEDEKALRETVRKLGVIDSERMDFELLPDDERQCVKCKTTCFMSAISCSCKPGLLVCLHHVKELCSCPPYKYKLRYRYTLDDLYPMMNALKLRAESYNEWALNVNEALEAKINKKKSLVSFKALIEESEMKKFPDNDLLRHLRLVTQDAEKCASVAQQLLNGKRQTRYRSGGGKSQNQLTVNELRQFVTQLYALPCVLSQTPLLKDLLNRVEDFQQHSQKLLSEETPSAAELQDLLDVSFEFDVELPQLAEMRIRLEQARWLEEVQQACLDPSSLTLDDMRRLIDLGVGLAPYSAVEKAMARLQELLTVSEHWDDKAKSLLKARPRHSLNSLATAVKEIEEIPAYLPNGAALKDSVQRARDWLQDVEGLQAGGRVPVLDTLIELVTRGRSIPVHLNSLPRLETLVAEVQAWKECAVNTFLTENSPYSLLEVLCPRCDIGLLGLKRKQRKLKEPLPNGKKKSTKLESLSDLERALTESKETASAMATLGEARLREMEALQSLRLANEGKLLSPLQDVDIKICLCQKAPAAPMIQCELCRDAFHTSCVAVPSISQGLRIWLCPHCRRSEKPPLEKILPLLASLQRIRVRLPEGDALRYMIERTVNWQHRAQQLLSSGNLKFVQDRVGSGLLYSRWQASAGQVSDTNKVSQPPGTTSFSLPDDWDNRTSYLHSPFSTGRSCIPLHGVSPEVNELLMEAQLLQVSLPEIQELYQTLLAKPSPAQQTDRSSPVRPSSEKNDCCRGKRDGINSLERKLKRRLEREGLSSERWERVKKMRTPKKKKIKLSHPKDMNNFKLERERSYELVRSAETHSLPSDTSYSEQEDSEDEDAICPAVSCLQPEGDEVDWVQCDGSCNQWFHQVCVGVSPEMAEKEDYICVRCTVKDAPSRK

On PRMT4 (h), `CC(C)=CCC[C@H](C)[C@@H]1CC[C@@H](C)c2c1cc(C)c(O)c2O` [Compound 4, 7,8-dihydroxyserrulat-14-ene] showed a negative logarithm of the IC50 (pIC50) of 5.33. In addition, the results for the inhibition at 1 µM against CYP2B6 (human liver microsomes) and against CYP2B6 (liver microsomes) were 13 to 16% and 16%, respectively. For the same compound, on CYP2B6 (liver microsomes), the inhibition at 10 µM was found to be 49%.
In the case of `CC(C)=CCC[C@@H]1COc2c(C)cc(O)c3c2[C@H]1CC[C@H]3C` [Compound 3, 5,18-epoxy-8-hydroxyserrulat-14-ene], the inhibition at 10 µM at ATAD2A (h) bromodomain (10 μM) was 9%; at JARID1A (h) (10 μM) it was 3%; at JARID1B (h) (10 μM) it was -2%; on MLL complex (h) it was 11%; on PRMT4 (h), 77%; on PRMT5 complex (h) it was 9%. Besides, the values for the inhibition at 10 µM (on SETD2(h); at SUV4-20H2 (h); in series [1]) were -11%, -45% and 10%, respectively. The “% Control Response, Agonist” value in the series with Angiotensin, AT1/ACE was 0%. For the same compound, the “% Control Response, Antagonist” value with Angiotensin, AT1/ACE was 17%.
`CC(C)=CCC[C@@H]1C(O)Oc2c(C)cc(O)c3c2[C@H]1CC[C@H]3C` (stereo partly drawn) [Compound 2, 5,18-epoxyserrulat-14-en-8,18-diol]: the inhibition at 10 µM on ATAD2A (h) bromodomain (10 μM) was 16%; at JARID1A (h) (10 μM), -9%; on JARID1B (h) (10 μM), 6%; at MLL complex (h), 22%; at PRMT4 (h), 84%; at PRMT5 complex (h), -8%. The inhibition at 10 µM at SETD2(h) was -4%; at SUV4-20H2 (h) it was 20%; in series [1] it was 2%; at CYP2B6 (liver microsomes), 38%. In addition, the pIC50 at PRMT4 (h) was 5.27. For the same compound, the “% Control Response, Agonist” value in the series with Angiotensin, AT1/ACE came out at 0%. Moreover, the “% Control Response, Antagonist” value with Angiotensin, AT1/ACE came to 10%. Besides, the inhibition at 1 µM on CYP2B6 (human liver microsomes) is 13 to 16%; on CYP2B6 (liver microsomes), 15%.
Regarding `Nc1ncnc2c1ncn2[C@@H]1O[C@H](CSCC[C@H](N)C(=O)O)[C@@H](O)[C@H]1O` [SAH], the pIC50 is 6.01 on MLL complex (h) (read-out: Reference IC50), 5.92 on SETD2(h) (read-out: Reference IC50) and 5.33 on SUV4-20H2 (h) (read-out: Reference IC50).
For the compound `CC(C)=CCC[C@H](CO)[C@@H]1CC[C@@H](C)c2c1cc(C)c(O)c2O` [Compound 1, 7,8,18-trihydroxyserrulat-14-ene], the “% Inhibition of Control Specific Binding” value at ATAD2A (h) bromodomain (10 μM) is recorded as “significant inhibitory activity”. Also, the inhibition at 10 µM on ATAD2A (h) bromodomain (10 μM) was 100%; at JARID1A (h) (10 μM), 64%; at JARID1B (h) (10 μM) it was 70%; at MLL complex (h) it was 2%; at PRMT4 (h), 90%; at PRMT5 complex (h), 8%. The inhibition at 10 µM is -9% at SETD2(h), 11% on SUV4-20H2 (h), 6% in [1] and 55% against CYP2B6 (liver microsomes). Further, the pIC50 was 5.51 on ATAD2A (h) bromodomain (Table 9, inhibition/concentration-response curve, read-out: IC50); 5.02 at JARID1A (h) (Table 11, inhibition/concentration-response curve, read-out: IC50); 5.44 on JARID1B (h) (Table 11, inhibition/concentration-response curve); 5.33 against PRMT4 (h). In addition, the “% Inhibition of Control Values” on JARID1A (h) (10 μM) and on JARID1B (h) (10 μM) was “significant inhibitory activity” each time. Further, the “% Control Response, Agonist” value in the series on Angiotensin, AT1/ACE was determined as 0%. For the same compound, the “% Control Response, Antagonist” value with Angiotensin, AT1/ACE is 34%. For the same compound, the figures for the inhibition at 1 µM on CYP2B6 (human liver microsomes) and against CYP2B6 (liver microsomes) were 13 to 16% and 13%, respectively.
